Several values for one entry are separate records, joined by “and”; a condition that tells them apart may be missing. Identical values can stand only once. Residues, ends and D or L forms follow the SMILES beside them. *: point of attachment. Myristoyl = CCCCCCCCCCCCCC(=O)*
Tests used:
NHBE cells = assay: Mucin secretion from NHBE cells exposed to kinase activators/reagents alone (ELISA); type: cell-based, human; conditions: for Mucin secretion as percent of control: 15 min
Protocol: To determine the potential role of PKC and/or PKG in the mucin secretory process, NHBE cells were exposed to the following two specific protein kinase activators: the phorbol ester, phorbol 12-myristate 13-acetate (PMA), for activation of PKC, and the nonhydrolyzable cGMP analogue, 8-Br-cGMP, for activation of PKG.
NHBE Cell Culture—Expansion, cryopreservation, and culture of NHBE cells in the air/liquid interface were performed as described previously. See, Krunkosky et al. Briefly, NHBE cells (Clonetics, San Diego, Calif.) were seeded in vented T75 tissue culture flasks (500 cells/cm^2) and cultured until cells reached 75-80% confluence. Cells were then dissociated by trypsin/EDTA and frozen as passage-2. Air/liquid interface culture was initiated by seeding passage-2 cells (2×10^4 cells/cm^2) in […]® clear culture inserts (Costar, Cambridge, Mass.) that were thinly coated with rat tail collagen, type 1 (Collaborative Biomedical, Bedford, Mass.). Cells were cultured submerged in medium in a humidified 95% air, 5% CO2 environment for 5-7 days until nearly confluent. At that time, the air/liquid interface was created by removing the apical medium and feeding cells basalaterally. Medium was renewed daily thereafter. Cells were cultured for an additional 14 days to allow for full differentiation.
Measurement of Mucin Secretion by ELISA—Before collection of “base line” and “test” mucin samples, the accumulated mucus at the apical surface of the cells was removed by washing with phosphate-buffered saline, pH 7.2. To collect the base-line secretion, cells were incubated with medium alone, and secreted mucin in the apical medium was collected and reserved. Cells were rested for 24 h and then exposed to medium containing the selected stimulatory and/or inhibitory reagents (or appropriate controls), after which secreted mucin was collected and reserved as the test sample. Incubation times for the base line and the test were the same but varied depending on the test reagent utilized. Both base line and test secretions were analyzed by ELISA using an antibody capture method as known in the art. See, e.g., Harlow et al., Antibodies: A Laboratory Manual, pp. 570-573, Cold Spring Harbor Laboratory, Cold Spring Harbor, N.Y. (1988). The primary antibody for this assay was 17Q2 (Babco, Richmond, Calif.), a monoclonal antibody that reacts specifically with a carbohydrate epitope on human airway mucins. […] Wright et al., Am. J. Physiol. 271, L854-L861 (1996). Levels of mucin secretion were reported as percentage of the medium control.
Mucus secreted from the airway epithelial cells in vitro after stimulation by activators was assessed using an ELISA (antibody capture method) (E. Harlow, D. Lane. “Antibodies: A Laboratory Manual.” New York: Cold Spring Harbor Laboratory Press, 1988), wherein the collected mucus is bound directly to the ELISA plate. Mucus was detected using an antibody raised against monkey airway mucus (Lin et al. Am J Respir Cell Mol Biol 1:41, 1989).

human neutrophils = assay: Human neutrophil chemotactic migration assay; type: cell-based; conditions: test peptide 50 μM; for Neutrophil Migration (% Inhibition), LTB4: LTB4 100 nM; for Neutrophil Migration (% Inhibition), LTB4 / Neutrophil Migration (% Inhibition), fMLP: 0 = inactive; for Neutrophil Migration (% Inhibition), PAF: PAF 100 nM; for Neutrophil Migration (% Inhibition), fMLP: fMLP 100 nM
Protocol: Human neutrophils were isolated from heparinized whole blood collected from healthy adult donors via cephalic venipuncture by a slightly modified method as described by Akasaki et al., 1999 (Akasaki T, Koga H, and Sumimoto H., Phosphoinositide 3-kinase-dependent and -independent activation of the small GTPase Rac2 in human neutrophils, J. Biol. Chem. 274:18055-18059, 1999). The blood was mixed with dextran (final concentration 1.4% dextran) and then allowed to settle for 60 minutes, after which time the leukocyte rich plasma was collected and layered onto 5 mL of Ficoll-Paque PLUS in 15 ml, conical tubes. The plasma was centrifuged at 1800 rpm for 20 minutes at room temperature. The residual erythrocytes were lysed utilizing a hypotonic saline and the remaining neutrophils were re-suspended in Hank's balanced salt solution containing 20 mM HEPES and 8.9 mM sodium bicarbonate without calcium or magnesium (HBSS), yielding neutrophils that were greater than 98% pure and greater than 99% viable.
Neutrophil migration assay was performed according to the method described by Frevert C W, Wong V A, Goodman R B, Goodwin R, and Martin T R., Rapid fluorescence-based measurement of neutrophil migration in vitro, J. Immunol. Methods, 213:41-52, 1998. Human neutrophils were labeled with the fluorescent dye calcein for 30 minutes at room temperature. Cells were then washed and resuspended in a migration buffer containing HBSS with 2% FCS. Cells were treated with buffer alone or with the indicated test peptide (50 μM) for 30 minutes at 37° C. Treated cells (1×10^4 cells) were then placed on the upper side of a ChemoTx® chemotaxis plate (Neuroprobe, Gaithersburg, Md.) membrane (2 μm pore size). Lower wells of the plate were filled with migration buffer alone or with buffer containing fMLP (100 nM), LTB4 (100 nM), or PAF (100 nM). Wells containing 1×10^4 labeled cells were used as standards to calculate migration percentage. Cells were allowed to migrate for 1 hour at 37° C. After incubation, cells on the top of the filter were washed away with PBS. Followed by this, 0.5 mM EDTA was added to the top of the filter for 5 min to detach adherent cells and the membrane was again washed. The plate was then centrifuged at 1000 rpm for 1 min. The filter was removed and the fluorescence was measured in the lower wells (485 nm excitation, 530 nm emission wavelength) using an fMax fluorescence plate reader (Molecular Devices, Sunnyvale, Calif.). Percent migration was determined by dividing the fluorescence of each well by the fluorescence of the standard wells containing 1×10^4 labeled cells. A lesser number of migrated neutrophils in the bottom compartment is indicative of the test peptide being an inhibitor of inflammation.

Nc1nc2c(nc(Br)n2[C@@H]2O[C@@H]3COP(=O)(O)O[C@H]3[C@H]2O)c(=O)[nH]1 [8-Br-cGMP]
Mucin secretion as percent of control (NHBE cells; reagent 1 μM alone): 109%

CCCCCCCCCCCCCC(=O)NCC(=O)N[C@@H](C)C(=O)N[C@@H](CCC(N)=O)C(=O)N[C@@H](Cc1ccccc1)C(=O)N[C@@H](CO)C(=O)N[C@@H](CCCCN)C(=O)N[C@H](C(=O)N[C@@H](C)C(=O)N[C@@H](C)C(=O)N[C@@H](CCCCN)C(=O)NCC(=O)N[C@@H](CCC(=O)O)C(=O)N[C@@H](C)C(=O)N[C@@H](C)C(=O)N[C@@H](C)C(=O)N[C@@H](CCC(=O)O)C(=O)N[C@@H](CCCNC(=N)N)C(=O)N1CCC[C@H]1C(=O)NCC(=O)N[C@@H](CCC(=O)O)C(=O)N[C@@H](C)C(=O)N[C@@H](C)C(=O)N[C@H](C(=O)N[C@@H](C)C(=O)O)C(C)C)[C@@H](C)O [MANS peptide] (Myristoyl-GAQFSKTAAKGEAAAERPGEAAVA-OH; C-terminus assumed)
Neutrophil Migration (% Inhibition), LTB4 (human neutrophils): 91.8%
Neutrophil Migration (% Inhibition), PAF (human neutrophils): 86.4%
Neutrophil Migration (% Inhibition), fMLP (human neutrophils): 90.0%

CCCCCCCCCCCCCC(=O)O[C@@H]1[C@@H](C)[C@@]2(O)[C@@H](C=C(CO)C[C@]3(O)C(=O)C(C)=C[C@@H]23)[C@@H]2C(C)(C)[C@]12OC(C)=O [PMA, phorbol 12-myristate 13-acetate]
Mucin secretion as percent of control (NHBE cells; reagent 100 nM alone): 123% and 122%
Mucin secretion in response to PMA alone (NHBE cells; various concentrations and times, up to 1 μM for 2 h): did not induce significant mucin secretion

CCCCCCCCCCCCCC(=O)NCC(=O)N[C@H](C(=O)N[C@@H](C)C(=O)N1CCC[C@H]1C(=O)N[C@@H](C)C(=O)N[C@@H](C)C(=O)N[C@@H](CCC(=O)O)C(=O)NCC(=O)N[C@@H](C)C(=O)NCC(=O)N[C@@H](C)C(=O)N[C@@H](CCC(=O)O)C(=O)N[C@H](C(=O)N[C@@H](CCCCN)C(=O)N[C@@H](CCCNC(=N)N)C(=O)N[C@@H](C)C(=O)N[C@@H](CO)C(=O)N[C@@H](C)C(=O)N[C@@H](CCC(=O)O)C(=O)N[C@@H](C)C(=O)N[C@@H](CCCCN)C(=O)N[C@@H](CCC(N)=O)C(=O)N[C@@H](C)C(=O)N[C@@H](Cc1ccccc1)C(=O)O)C(C)C)[C@@H](C)O [RNS peptide, reference compound] (Myristoyl-GTAPAAEGAGAEVKRASAEAKQAF-OH; C-terminus assumed)
Neutrophil Migration (% Inhibition), LTB4 (human neutrophils): 0%
Neutrophil Migration (% Inhibition), PAF (human neutrophils): 62.1%
Neutrophil Migration (% Inhibition), fMLP (human neutrophils): 0.7%

CCCCCCCCCCCCCC(=O)NCC(=O)N[C@@H](C)C(=O)N[C@@H](CCC(N)=O)C(=O)N[C@@H](Cc1ccccc1)C(=O)N[C@@H](CO)C(=O)N[C@@H](CCCCN)C(=O)N[C@H](C(=O)N[C@@H](C)C(=O)N[C@@H](C)C(=O)N[C@@H](CCCCN)C(=O)NCC(=O)N[C@@H](CCC(=O)O)C(=O)O)[C@@H](C)O [SEQ ID NO: 13, N-myristoyl-GAQFSKTAAKGE] (Myristoyl-GAQFSKTAAKGE-OH; C-terminus assumed)
Neutrophil Migration (% Inhibition), LTB4 (human neutrophils): 82.7%
Neutrophil Migration (% Inhibition), PAF (human neutrophils): 85.7%
Neutrophil Migration (% Inhibition), fMLP (human neutrophils): 81.8%

CCCCCCCCCCCCCC(=O)NCC(=O)N[C@@H](C)C(=O)N[C@@H](CCC(N)=O)C(=O)N[C@@H](Cc1ccccc1)C(=O)N[C@@H](CO)C(=O)N[C@@H](CCCCN)C(=O)N[C@H](C(=O)N[C@@H](C)C(=O)N[C@@H](C)C(=O)N[C@@H](CCCCN)C(=O)O)[C@@H](C)O [SEQ ID NO: 15, N-myristoyl-GAQFSKTAAK] (Myristoyl-GAQFSKTAAK-OH; C-terminus assumed)
Neutrophil Migration (% Inhibition), LTB4 (human neutrophils): 85.5%
Neutrophil Migration (% Inhibition), PAF (human neutrophils): 87.2%
Neutrophil Migration (% Inhibition), fMLP (human neutrophils): 88.6%

TNF-α
Mucin secretion level, % of control (NHBE cells; TNF-α 10 ng/ml 4 h, no secretagogue): 109%
